The values below come from patent US11919858B2, “Aminonapthoquinone compounds and pharmaceutical composition for blocking ubiquitination-proteasome system in diseases” (Calgent Biotechnology Co., Ltd., priority 2015, dated 2024).

Molecules are shown by their SMILES. Like-named read-outs stand apart in the source and are kept apart here.

For one series, the system named is HCT-116. Nature of the series: Growth inhibition assay. The series is classed as cell-based. The following applies: Homo sapiens, HCT-116; read-out: HCT-116 GI50 (μM) Mean ± S.E. Here is the method: (§1) Cells were seeded in 96-well plastic plates and exposed to MPT0L056 for 48 hours. Cell viability was assessed using the 3-(4,5-dimethylthiazol-2-yl)-2,5-diphenyltetrazolium bromide assay. Growth inhibition was expressed as the percentage of surviving cells in drug-treated versus DMSO-treated control cells.
(§2) The compounds of the invention were subjected to growth inhibition assay.

The subject of a further series is HL-60. Nature of the series: Growth inhibition assay. The format is cell-based. Particulars: HL-60; for IC50: Homo sapiens, read-out: HL-60 IC50 (μM) Mean ± S.E. Here is the method:
as §1, §2

A further series relates to Hep 3B. Nature of the series: Growth inhibition assay. The format is cell-based. Particulars: Homo sapiens, Hep3B; read-out: Hep3B GI50 (μM) Mean ± S.E. Here is the method:
as §1, §2

For a further series, the system named is MDA-MB-231. Nature of the series: Growth inhibition assay. The series is classed as cell-based. The following applies: Homo sapiens, MDA-MB-231; read-out: MDA-MB-231 GI50 (μM) Mean ± S.E. Here is the method:
as §1, §2

In series [1] the test system is HCT116 human colorectal adenocarcinoma. Here is the method: MPT0L056 was used to evaluate for activity against the HCT116 human colorectal adenocarcinoma.
However, MPT0E028 was administered orally (p.o.) in 1.0% CMC and 0.5% Tween 80 and given dose at 25 mg/kg daily to end schedule.
Each animal was euthanized when the tumors reached the predetermined endpoint size of 1,000 mm^3. The time to endpoint (TTE) for each mouse was calculated by the following equation:
[formula] where TTE is expressed in days, endpoint volume is in mm^3, b is the intercept, and m is the slope of the line obtained by linear regression of a log-transformed tumor growth data set. The data set is comprised of the first observation that exceeded the study endpoint volume and the three consecutive observations that immediately preceded the attainment of the endpoint volume. The calculated TTE is usually less than the day on which an animal is euthanized for tumor size. […] An animal classified as having died from treatment-related (TR) causes or non-treatment-related metastasis (NTRm) causes was assigned a TTE value equal to the day of death. An animal classified as having died from non-treatment-related (NTR) causes was excluded from TTE calculations.
Treatment efficacy was determined from tumor growth delay (TGD), which is defined as the increase in the median TTE for a treatment group compared to the control group: TGD=T−C, expressed in days, or as a percentage of the median TTE of the control group:
[formula] where: • T=median TTE for a treatment group, • C=median TTE for control Group 1.
Treatment efficacy was also determined from the tumor volumes of animals remaining in the study on the last day, and from the number of regression responses. The MTV(n) is defined as the median tumor volume on D59 in the number of animals remaining, n, whose tumors have not attained the endpoint volume.
Treatment may cause a partial regression (PR) or a complete regression (CR) of the tumor in an animal. […] An animal with a CR at the termination of a study is additionally classified as a tumor-free survivor (TFS).
Animals were weighed daily for the first five days, then twice weekly until the completion of the study. The mice were examined frequently for overt signs of any adverse, drug-related side effects. Acceptable toxicity for the MTD of cancer drugs is defined as a group mean BW loss of 20% or less during the test, and not more than one TR death among ten animals. A death is classified as TR if there is evidence of treatment side effects from clinical signs and/or necropsy or from unknown causes during dosing period or within 10 days of the last dose. A death is classified as NTR if there is no evidence that the death was related to treatment side effects.
The logrank test was used to determine the statistical significance of the difference between the TTE values of two groups, except any NTR deaths. Statistical and graphical analyses were performed with Prism 3.03 (GraphPad) for Windows. The two-tailed statistical analyses were conducted at P=0.05. Kaplan-Meier plots show the percentage of animals remaining in the study versus time. The Kaplan-Meier plots use the same data set as the log rank test. The tumor growth curves show the group median tumor volume, on a log scale as a function of time.

[2] abbreviates: Group 1 vs 2: MPT0E028 25 mg/kg.
Setting [3] is: Group 2: MPT0E028 25 mg/kg po qd to endpoint.

Consider `O=C(Nc1ccc2[nH]cnc2c1)c1ccc(CNC2=C(Cl)C(=O)c3ccccc3C2=O)cc1` [MPT0L093, N-(1H-benzo[d]imidazol-5-yl)-4-((3-chloro-1,4-dioxo-1,4-dihydronaphthalen-2-ylamino)methyl)benzamide], for which the concentration for 50% growth inhibition (GI50) in the series with HCT-116, in the series with Hep 3B and in the series on MDA-MB-231 was 10 to 30 µM throughout. For the same compound, the concentration for half-maximal inhibition (IC50) in the series on HL-60 lay in the range of 10 to 30 µM.

As to `O=C(Nc1ccccc1)c1ccc(CNC2=C(Cl)C(=O)c3ccccc3C2=O)cc1` [MPT0L083, 4-(((3-chloro-1,4-dioxo-1,4-dihydronaphthalen-2-yl)amino)methyl)-N-phenylbenzamide], the GI50 with HCT-116, in the series on Hep 3B and in the series on MDA-MB-231 was 10 to 30 µM throughout. The IC50 in the series with HL-60 lay in the range of 10 to 30 µM.

`O=C(Nc1ccc2ncccc2c1)c1ccc(CNC2=C(Cl)C(=O)c3ccccc3C2=O)cc1` [MPT0L108, 4-((3-chloro-1,4-dioxo-1,4-dihydronaphthalen-2-ylamino)methyl)-N-(quinolin-6-yl)benzamide]: the figures for the concentration for 50% growth inhibition (GI50) in the series with HCT-116, in the series with Hep 3B and in the series with MDA-MB-231 were 6.82 ± 0.35 µM, 10 to 30 µM and 10 to 30 µM, respectively. The half-maximal inhibitory concentration (IC50) in the series with HL-60 was 8.09 ± 0.57 µM.

For the compound `Cc1cnc(NC(=O)c2ccc(CNC3=C(Cl)C(=O)c4ccccc4C3=O)cc2)s1` [MPT0L098, 4-((3-chloro-1,4-dioxo-1,4-dihydronaphthalen-2-ylamino)methyl)-N-(5-methylthiazol-2-yl)benzamide], the GI50 with HCT-116, in the series with Hep 3B and in the series on MDA-MB-231 was 10 to 30 µM in each case. Also, in the series with HL-60, the IC50 came to 7.06 ± 0.73 µM.

Turning to `O=C(Nc1cnc2[nH]ccc2c1)c1ccc(CNC2=C(Cl)C(=O)c3ccccc3C2=O)cc1` [MPT0L119, 4-((3-chloro-1,4-dioxo-1,4-dihydronaphthalen-2-ylamino)methyl)-N-(1H-pyrrolo[2,3-b]pyridin-5-yl)benzamide], the GI50 with HCT-116, in the series with Hep 3B and in the series on MDA-MB-231 was 10 to 30 µM in each case. The 50% inhibitory concentration (IC50) in the series on HL-60 was in the range of 10 to 30 µM.

Regarding `Cn1ccc2c(NC(=O)c3ccc(CNC4=C(Cl)C(=O)c5ccccc5C4=O)cc3)ncnc21` [MPT0L121, 4-((3-chloro-1,4-dioxo-1,4-dihydronaphthalen-2-ylamino)methyl)-N-(7-methyl-711-pyrrolo[2,3-d]pyrimidin-4-yl)benzamide], the GI50 with HCT-116, in the series with Hep 3B and in the series with MDA-MB-231 was 10 to 30 µM throughout. The IC50 in the series on HL-60 was found to be 2.68 ± 0.17 µM.

`O=C(Nc1cccc2ncccc12)c1ccc(CNC2=C(Cl)C(=O)c3ccccc3C2=O)cc1` [MPT0L111, 4-((3-chloro-1,4-dioxo-1,4-dihydronaphthalen-2-ylamino)methyl)-N-(quinolin-5-yl)benzamide]: the concentration for 50% growth inhibition (GI50) with HCT-116, in the series with Hep 3B and in the series with MDA-MB-231 was 10 to 30 µM in each case. Moreover, the half-inhibitory concentration (IC50) in the series with HL-60 is 2.23 ± 0.27 µM.

With `O=C(Nc1cnc2ccccc2c1)c1ccc(CNC2=C(Cl)C(=O)c3ccccc3C2=O)cc1` [MPT0L110, 4-((3-chloro-1,4-dioxo-1,4-dihydronaphthalen-2-ylamino)methyl)-N-(quinolin-3-yl)benzamide], the GI50 in the series with HCT-116, in the series on Hep 3B and in the series on MDA-MB-231 was 10 to 30 µM throughout. Further, in the series on HL-60, the IC50 is 7.93 ± 1.14 µM.

`O=C(Nc1nc2ccccc2[nH]1)c1ccc(CNC2=C(Cl)C(=O)c3ccccc3C2=O)cc1` [MPT0L086, N-(1H-benzo[d]imidazol-2-yl)-4-(((3-chloro-1,4-dioxo-1,4-dihydronaphthalen-2-yl)amino)methyl)benzamide]: the GI50 in the series with HCT-116 is 10 to 30 µM; in the series with Hep 3B, 10 to 30 µM; with MDA-MB-231, 8.88 ± 1.04 µM. Also, the IC50 with HL-60 fell in the range of 10 to 30 µM.

As for `O=C(Nc1ccc(F)cc1)c1ccc(CNC2=C(Cl)C(=O)c3ccccc3C2=O)cc1` [MPT0L082], the GI50 with HCT-116, with Hep 3B and in the series with MDA-MB-231 was 10 to 30 µM each time. In addition, the IC50 with HL-60 lay within 10 to 30 µM.

`O=C(Nc1ccc2[nH]ccc2c1)c1ccc(CNC2=C(Cl)C(=O)c3ccccc3C2=O)cc1` [MPT0L113, 4-((3-chloro-1,4-dioxo-1,4-dihydronaphthalen-2-ylamino)methyl)-N-(1H-indol-5-yl)benzamide]: the GI50 in the series on HCT-116, in the series with Hep 3B and in the series on MDA-MB-231 was 10 to 30 µM throughout. Also, the half-inhibitory concentration (IC50) in the series with HL-60 was found to be 8.92 ± 0.39 µM.

Consider `O=C(/C=C/c1ccc2c(c1)CCN2S(=O)(=O)c1ccccc1)NO` [MPT0E028, reference compound], for which, in series [1] (setting [2]), the “Hazard Ratio” value is listed as 3.677, the “Median survival” value is on record as 40.5 and the “Median survival Ratio” value worked out at 0.5605. Moreover, in series [1] (Group 1 vs 7: 100/25 mg/kg), the “Hazard Ratio” value worked out at 1.43, the “Median survival” value is 33.95 and the “Median survival Ratio” value came out at 0.6686. Besides, in series [1] (Group 1 vs 8: 50/25 mg/kg), the “Hazard Ratio” value amounted to 3.433, the “Median survival” value stood at 45.3 and the “Median survival Ratio” value came out at 0.5011. In series [1] (setting [3]), the “MTV (n) Day 59” value came out at 454 mm^3, the “Median TTE” value is 40.5 days, the T-C is on record as 17.8 days and the “antitumor activity (logrank analysis)” value is reported as “produced significant antitumor activity”. Further, the “% TGD” value in series [1] (Group 2: MPT0E028 25 mg/kg po qd to endpoint, 25 mg/kg) is on record as 78%. The “Logrank Significance” value in series [1] (Group 2: MPT0E028 25 mg/kg po qd to endpoint, compared to Group 1) is on record as “* (* = P < 0.05)”. Besides, in series [1] (mouse, in vivo, po, 25 mg/kg), the “Day of Max % BW Loss” value worked out at 5 days, the “Max % BW Loss” value was −7.7%, the “No. of NTR” value was determined as 0 and the “No. of TR” value was 0.

Regarding `Nc1ccn(C(=O)c2ccc(CNC3=C(Cl)C(=O)c4ccccc4C3=O)cc2)n1` [MPT0L094, 2-(4-(3-amino-1H-pyrazole-1-carbonyl)benzylamino)-3-chloronaphthalene-1,4-dione], the GI50 with HCT-116, in the series on Hep 3B and with MDA-MB-231 was 10 to 30 µM in each case. For the same compound, in the series with HL-60, the “HL-60 IC50 (μM) Mean ± S.E.” value is 110~30 μM.

Regarding `Cc1cc(N)nn1C(=O)c1ccc(CNC2=C(Cl)C(=O)c3ccccc3C2=O)cc1` [MPT0L100, 2-(4-(3-amino-5-methyl-1H-pyrazole-1-carbonyl)benzylamino)-3-chloronaphthalene-1,4-dione], the concentration for 50% growth inhibition (GI50) in the series on HCT-116, in the series with Hep 3B and with MDA-MB-231 was 10 to 30 µM throughout. The IC50 with HL-60 was 10 to 30 µM.

For the compound `O=C(Nc1ccncc1[N+](=O)[O-])c1ccc(CNC2=C(Cl)C(=O)c3ccccc3C2=O)cc1` [MPT0L103, 4-((3-chloro-1,4-dioxo-1,4-dihydronaphthalen-2-ylamino)methyl)-N-(3-nitropyridin-4-yl)benzamide], the GI50 with HCT-116 is 6.12 ± 1.17 µM; in the series with Hep 3B, 10 to 30 µM; in the series on MDA-MB-231 it was 10 to 30 µM. Further, the half-inhibitory concentration (IC50) with HL-60 stood at 5.42 ± 0.7 µM.

As to `O=C(Nc1cccc2[nH]ccc12)c1ccc(CNC2=C(Cl)C(=O)c3ccccc3C2=O)cc1` [MPT0L116, 4-((3-chloro-1,4-dioxo-1,4-dihydronaphthalen-2-ylamino)methyl)-N-(1H-indol-4-yl)benzamide], the GI50 in the series on HCT-116, in the series with Hep 3B and in the series with MDA-MB-231 was 10 to 30 µM in each case. In the series on HL-60, the IC50 is 4.06 ± 1.82 µM.

`O=C(Nc1ccc2cn[nH]c2c1)c1ccc(CNC2=C(Cl)C(=O)c3ccccc3C2=O)cc1` [MPT0L118, 4-((3-chloro-1,4-dioxo-1,4-dihydronaphthalen-2-ylamino)methyl)-N-(1H-indazol-6-yl)benzamide]: the concentration for 50% growth inhibition (GI50) in the series with HCT-116, in the series with Hep 3B and with MDA-MB-231 was 10 to 30 µM each time. For the same compound, in the series on HL-60, the concentration for half-maximal inhibition (IC50) worked out at 7.39 ± 3.49 µM.
